Laboratory results from US6423855B1, “Cytoprotective compounds” (Virginia Commonwealth University, priority 1996, dated 2002).
≈ marks a conversion by molar mass, not a printed value.

Legend:
[1] = system: ultraviolet-induced erythema; assay: protection against ultraviolet-induced erythema; assay type: in vivo, hairless albino mice; conditions: 1 = Best, 4 = Worst
Procedure: The human skin tests were conducted on three volunteer female subjects, ages 29-32; a cream base with no added active was included as a control, while the untreated skin served as an additional basis for evaluation. Sunburn tests were performed on a total of 30 hairless albino mice.
5.Protection against ultraviolet-induced ervthema. The protection against ultraviolet-induced erythema (i.e., the burn and irritation produced after exposure to ultraviolet radiation), was measured by first irradiating 12 mice with destructive 3130 angstrom (Å) rays, applying the creams, and then evaluating the skin cells for erythema.

[2] = system: purified human disc PLA2 induced paw edema; assay: human disc PLA2-induced mouse paw edema; assay type: in vivo
Procedure: Edema was induced by injection of 1 ug of purified human disc PLA2 into the mouse footpad. PX-13 was administered either by gavage or intraperitoneally (IP) 60 min prior to enzyme challenge. Forty-five min after enzyme injection, the animals were sacrificed and the control and injected paws were removed and weighed to assess edema.

[3] = system: rat dorsal root ganglion cells; assay: cultured rat dorsal root ganglion cells exposed to human disc PLA2; assay type: cell-based
Procedure: Primary cultures of rat dorsal root ganglion cells were used. Cells were washed 3-times with media to remove serum. Then, PX-13 (20 uM) in HEPES buffer or a buffer control was applied to the cells. After 10 min of incubation, purified human disc PLA2 (activity 1 umol/min) was added and the cells were incubated for an additional 60-90 min. Cells were then observed, fixed, and photographed 1.5 hrs after addition of PLA2.

[4] = biological target: T1, purified human disc type II, PLA2 (Homo sapiens, UniProt P14555); assay: inhibition of purified human disc type II PLA2; assay type: biochemical
T1 construct: the purified human disc type II, PLA2; from tissue; host or cells: human vertebral (herniated) disc
Procedure: Both PX-13 and PX-18 inhibit the purified human disc type II, PLA2. PLA2 activity was measured as described in Franson et al., Prostaglandins, Leukotrienes and Essential Fatty Acids, 43:63-70, 1991, which is herein incorporated by reference in its entirety.

[5] = system: PLA2 activity in extracts of rat bowel; assay: PLA2 activity in extracts of rat bowel; assay type: biochemical
small bowel graft = assay: small bowel transplantation ischemia-reperfusion injury; assay type: in vivo, rat
Procedure: These drugs were also tested for their ability to enhance the preservation of tissues stored for subsequent transplantation. The small bowel was removed from rats, washed free of luminal contents and the tissue stored in University of Wisconsin (UW) preservative media ±40 uM PX-13 or mepacrine for 48 hrs. The graft was then transplanted into rats with or without intravenous (IV) infusion of 20 mg/kg PX-13 or mepacrine at the time of transplantation.

[6] = small bowel storage in perfusate solution, tissue weight; set-up: species or system rat; conditions: 24 and 48 hours in the perfusate solution
Procedure: These drugs were also tested for their ability to enhance the preservation of tissues stored for subsequent transplantation. […] The graft was then transplanted into rats with or without intravenous (IV) infusion of 20 mg/kg PX-13 or mepacrine at the time of transplantation.

ischemic bowel = assay: PLA2 release from ischemic bowel into media; conditions: 24 hrs of ischemia
Description: The addition of PX-13 reduced the enzyme release by more than 80% during 24 hrs of ischemia.

clone D6 (P. falciparum) = assay: 3H-hypoxanthine incorporation, P.falciparum clone D6; assay type: cell-based; conditions: Plasmodium falciparum, D6, read-out: IC50 growth
human blood cells = assay: preservation of whole blood (LDH and hemoglobin release); assay type: cell-based
Procedure: The effect of PX-13 and mepacrine on whole blood cell viability were tested as a function of time of storage.
Heparinized human blood was centrifuged at 400×g and the resulting plasma was removed and replaced with an equal volume of Dulbecco's medium. The resuspended cells were then incubated at 37° C. for 0-72 hrs. in a shaking water bath. At the indicated times, a 0.8 ml aliquot was removed and centrifuged at 400×g to sediment cells. Appearance of lactate dehydrogenase (LDH) and hemoglobin in the supernate was indicative of cell injury. PX-13 and mepacrine stabilized cells and decreased the injury as evidenced by diminished levels of LDH and hemoglobin in the supernate. This is expressed as percent protection.

platelets = assay: platelet aggregation; assay type: cell-based; conditions: 25-μM dose
Description: Applicants have also observed that PX-13 inhibited serotonin release by thrombin-stimulated platelets. This observation supports the contention that the PX compounds of the present invention may block release of inflammatory mediators in the coagulation cascade. This observation also supports the use of PX compounds to inhibit thrombin-induced platelet aggregation and to act as anti-clotting agents.

[7] = system: reflex sympathetic dystrophy (RSD); assay: topical cream in patients with reflex sympathetic dystrophy; assay type: in vivo, human
Procedure: A patient presents with severe RSD characterized by persistent pain and limitation of movement at the wrist joint. […] Another patient presents with a two year history of RSD in the knee joint. This patient previously received arthroscopic evaluations. This patient also had limited range of motion and became addicted to narcotics in an attempt to reduce pain. […] The reduction in pain is immediate and the increased range of motion occurs within 10-20 minutes. This patient, who had been unemployed for an extended period, eliminated intake of narcotics and returned to work. A third patient presented with RSD of the foot and ankle. This patient had no eversion or inversion of the foot.

[8] = therapeutic index LD50/ED50
[9] = patient 2, knee, cream combined with sympathetic blockade

T1 sequence (P14555 21-144): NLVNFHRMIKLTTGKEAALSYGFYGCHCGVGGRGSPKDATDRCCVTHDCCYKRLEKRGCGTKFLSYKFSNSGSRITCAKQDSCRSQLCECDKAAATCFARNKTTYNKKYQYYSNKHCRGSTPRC

SMILES: CCCCCCCC/C=C\CCCCCCCC(=O)OCC(COC(=O)CCCCCCC/C=C\CCCCCCCC)(COC(=O)CCCCCCC/C=C\CCCCCCCC)NCCS(=O)(=O)O [PX-13, 2-[Tris(oleoyloxymethyl)methylamino]-1-ethanesulfonic acid]
- Post-Radiation Erythema Ranking Mean ([1]; Mean): 4.7
- Post-Radiation Erythema Ranking ([1]; Subject 3): 4
- Percent Protection ([2]; 20 mg/kg gavage, 60 min prior to enzyme, paws weighed 45 min after): 33%
- Percent Protection ([2]; 40 mg/kg IP): 48%
- Percent Protection ([2]; 40 mg/kg gavage): 55%
- Percent Protection ([2]; 60 mg/kg gavage): 63%
- cell morphology, compound alone ([3]; 20 uM alone): indistinguishable from control cultures
- cell morphology, compound + human disc PLA2 ([3]; 20 uM, PLA2 activity 1 umol/min, 60-90 min): indistinguishable from control cultures
- IC50 [4]: 2500 nM
- effectiveness as PLA2 inhibitor relative to mepacrine [5]: more than 2 log units
- inhibition of PLA2 activity [5]: inhibited
- gross and microscopic injury to tissue (small bowel graft; 40 uM in UW media 48 hrs, with or without 20 mg/kg IV at transplantation): dramatically reduced
- bowel color after transplantation (small bowel graft; rat, in vivo): maintained normal bowel color
- protection against ischemia and reperfusion injury (small bowel graft; small bowel transplantation): protect
- weight of the tissues after storage [6]: reduced weight
- reduction of PLA2 enzyme release (ischemic bowel): more than 80%
- IC50 (clone D6 (P. falciparum)): 17 µg/mL (≈ 16.6 µM)
- Percent Protection Hemoglobin (human blood cells; 20 uM, 48 hr): 55%
- Percent Protection LDH (human blood cells; 20 uM, 48 hr, 37° C.): 22%
- Percent Protection Hemoglobin (human blood cells; 20 uM, 72 hr): 25%
- Percent Protection LDH (human blood cells; 20 uM, 72 hr): 15%
- Percent Protection Hemoglobin (human blood cells; 80 uM, 48 hr): 72%
- Percent Protection LDH (human blood cells; 80 uM, 48 hr): 39%
- Percent Protection Hemoglobin (human blood cells; 80 uM, 72 hr): 54%
- Percent Protection LDH (human blood cells; 80 uM, 72 hr): 41%
- Percent Protection Hemoglobin (human blood cells; 160 uM, 48 hr): 77%
- Percent Protection LDH (human blood cells; 160 uM, 48 hr): 78%
- Percent Protection Hemoglobin (human blood cells; 160 uM, 72 hr): 80%
- Percent Protection LDH (human blood cells; 160 uM, 72 hr): 72%
- platelet aggregation (platelets): inhibited
- pain relief ([7]; patient 1, wrist, about 4% in cream of Example 15, topical): immediate pain relief
- pain and range of motion [7, 9]: decreases the patient's report of pain and provides a full range of motion
- time to increased range of motion [7, 9]: 10 to 20 min
- time to full eversion and inversion ([7]; patient 3, foot and ankle, about 4% cream): ≤ 20 min
- pain relief ([7]; patient 3, foot and ankle, about 4% in cream vehicle): immediate and complete pain relief
- therapeutic index (LD50/ED50) [8]: a large positive number
